From US7713971B2, “1,2,4-triazine derivatives, preparation and use thereof in human therapy” (Pierre Fabre Medicament, priority 2005, dated 2010)
pEC50: −log10 of the molar value. Where two headings read alike, the source gives them in different places.

How the values were obtained:
human PPARγ = target: T1, human PPARγ (Homo sapiens, UniProt P37231); assay: Reporter gene transactivation, hPPAR-GAL4 gamma; format: cell-based; conditions: transfected Cos-7 cells, Gal-4 luciferase reporter, 24 hours treatment
T1 construct: expressed in transfected cells; host or cells: Cos-7 cells (ATCC, CRL-1651)
T1 sequence (P37231 238-503 limits assumed): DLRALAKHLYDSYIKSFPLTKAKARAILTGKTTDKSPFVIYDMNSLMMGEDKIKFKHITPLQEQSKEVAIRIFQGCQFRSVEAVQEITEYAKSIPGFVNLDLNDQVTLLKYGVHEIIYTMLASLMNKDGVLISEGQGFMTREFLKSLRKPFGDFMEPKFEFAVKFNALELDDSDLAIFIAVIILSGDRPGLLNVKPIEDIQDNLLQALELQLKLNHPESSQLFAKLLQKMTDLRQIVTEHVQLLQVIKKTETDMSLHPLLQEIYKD

[1] = test system: insulin-resistant male rat (Ico: ZUCKER-fa/fa); assay: Normalization of metabolic parameters (cholesterol, plasma triglycerides) in insulin-resistant rat; format: in vivo; conditions: oral route, once per day for four days, Zucker fa/fa rat unfed 16-18 hours; for change in vivo at 10 mg/kg / change in vivo at 2.5 mg/kg: 96 h
Experimental: Normalization of metabolic parameters (cholesterol, plasma triglycerides) in an insulin-resistant male rat (Ico: ZUCKER-fa/fa), unfed for 16-18 hours, after treatment by oral route, once per day for four days, with the compounds to be evaluated or their administration vehicle.
These metabolic parameters are measured by spectrophotometry at the beginning and the end of each animal's treatment.

human PPARα = target: T2, human PPARα (Homo sapiens, UniProt Q07869); assay: Reporter gene transactivation, hPPAR-GAL4 alpha; format: cell-based; conditions: transfected Cos-7 cells, Gal-4 luciferase reporter, 24 hours treatment
T2 construct: expressed in transfected cells; host or cells: Cos-7 cells (ATCC, CRL-1651)
T2 sequence (Q07869 239-466 limits assumed): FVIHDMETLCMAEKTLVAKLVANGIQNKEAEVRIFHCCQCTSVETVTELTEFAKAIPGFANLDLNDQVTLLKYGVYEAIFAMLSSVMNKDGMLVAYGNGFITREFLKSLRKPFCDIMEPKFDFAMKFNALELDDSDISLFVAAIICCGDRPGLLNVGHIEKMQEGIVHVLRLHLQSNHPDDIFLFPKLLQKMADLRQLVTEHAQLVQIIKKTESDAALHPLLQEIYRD

[2] = at 10 mg/kg, read-out: Plasma cholesterol
[3] = at 2.5 mg/kg, read-out: Plasma cholesterol
[4] = at 10 mg/kg, read-out: Plasma triglycerides

pEC50 (human PPARγ) | pEC50 (human PPARα) | SMILES | change in vivo at 10 mg/kg [1, 2] [%] | Plasma triglycerides ([1]; at 10 mg/kg) | change in vivo at 2.5 mg/kg [1, 3] [%] | change in vivo at 10 mg/kg [1, 4] [%] | Plasma triglycerides ([1]; at 2.5 mg/kg)
5.00 to 5.52 | 8.00 to 8.52 | CCOC(=O)C(C)(C)Oc1cccc(CCCCCNc2nn(CCCC(F)(F)F)c(=O)n(CCCC(F)(F)F)c2=O)c1 [Example 92, Ethyl 2-(3-{5-[3,5-dioxo-2,4-bis-(4,4,4-trifluoro-butyl)-2,3,4,5-tetrahydro-[1,2,4]triazin-6-ylamino]-pentyl}-phenoxy)-2-methyl-propionate] | -18 | inactive at 10 | – | – | –
5.00 to 5.52 | ~6.00 | CCOC(=O)C(C)(C)Oc1cccc(CCCCNc2nn(CCCC(F)(F)F)c(=O)n(C)c2=O)c1 [Example 74, Ethyl 2-methyl-2-(3-{4-[4-methyl-3,5-dioxo-2-(4,4,4-trifluoro-butyl)-2,3,4,5-tetrahydro-[1,2,4]triazin-6-ylamino]-butyl}-phenoxy)-propionate] | -29 | – | -18 | -26 | inactive at 2.5
6.52 | 6.52 | CCCCCCCn1nc(NCCc2ccc(SC(C)(C)C(=O)OCC)cc2)c(=O)n(C)c1=O [Example 119, Ethyl 2-{4-[2-(2-heptyl-4-methyl-3,5-dioxo-2,3,4,5-tetrahydro-[1,2,4]triazin-6-ylamino)-ethyl]-phenylsulfanyl}-2-methyl-propionate] | -32 | – | -21 | -29 | active at 2.5
5.00 to 5.52 | ~6.52 | CCOC(=O)C(C)(C)Oc1cccc(CCCCNc2nn(C)c(=O)n(CCCC(F)(F)F)c2=O)c1 [Example 77, Ethyl 2-methyl-2-(3-{4-[2-methyl-3,5-dioxo-4-(4,4,4-trifluoro-butyl)-2,3,4,5-tetrahydro-[1,2,4]triazin-6-ylamino]-butyl}-phenoxy)-propionate] | -35 | active at 10 mg/kg | -29 | – | –
~5.00 | ~6.00 | CCCCCCCn1c(=O)c(NCCCc2cccc(OC(C)(C)C(=O)OCC)c2)nn(Cc2ccccc2)c1=O [Example 70, Ethyl 2-{3-[3-(2-benzyl-4-heptyl-3,5-dioxo-2,3,4,5-tetrahydro-[1,2,4]triazin-6-ylamino)-propyl]-phenoxy}-2-methyl-propionate] | – | – | – | – | –
< 5.00 | 5.00 to 5.52 | CCCCCCCn1nc(N(CCCOc2cccc(OC(C)(C)C(=O)OCC)c2)CCCC(F)(F)F)c(=O)n(C)c1=O [Example 51, Ethyl 2-(3-{3-[(2-heptyl-4-methyl-3,5-dioxo-2,3,4,5-tetrahydro-[1,2,4]triazin-6-yl)-(4,4,4-trifluoro-butyl)-amino]-propoxy}-phenoxy)-2-methyl-propionate] | – | – | – | – | –
< 5.00 | < 5.00 | CCCCCCCn1nc(OCCOc2ccc(SC(C)(C)C(=O)OCC)cc2)c(=O)n(C)c1=O [Example 38, Ethyl 2-{4-[2-(2-heptyl-4-methyl-3,5-dioxo-2,3,4,5-tetrahydro-[1,2,4]triazin-6-yloxy)-ethoxy]-phenylsulfanyl}-2-methyl-propionate] | – | – | – | – | –
~5.00 | 5.52 to 6.00 | Cn1c(=O)c(NCCc2ccc(SC(C)(C)C(=O)O)cc2)nn(CCCC(F)(F)F)c1=O [Example 118, 2-Methyl-2-(4-{2-[4-methyl-3,5-dioxo-2-(4,4,4-trifluoro-butyl)-2,3,4,5-tetrahydro-[1,2,4]triazin-6-ylamino]-ethyl}-phenylsulfanyl)-propionic Acid] | – | – | – | – | –
~6.00 | 7.00 to 7.52 | CCCCCCCn1c(=O)c(OCCCCCc2cccc(OC(C)(C)C(=O)OCC)c2)nn(CCCC(F)(F)F)c1=O [Example 18, Ethyl 2-(3-{5-[4-heptyl-3,5-dioxo-2-(4,4,4-trifluoro-butyl)-2,3,4,5-tetrahydro-[1,2,4]triazin-6-yloxy]-pentyl}-phenoxy)-2-methyl-propionate] | – | – | – | – | –
5.00 to 5.52 | ~5.52 | CCCCCCCn1c(=O)c(OCCCCCc2cccc(OC(C)(C)C(=O)OCC)c2)nn(Cc2ccccc2)c1=O [Example 19, Ethyl 2-{3-[5-(2-benzyl-4-heptyl-3,5-dioxo-2,3,4,5-tetrahydro-[1,2,4]triazin-6-yloxy)-pentyl]-phenoxy}-2-methyl-propionate] | – | – | – | – | –
~5.00 | 5.00 to 5.52 | CCOC(=O)C(C)(C)Oc1cccc(CCCCCOc2nn(CCCC(F)(F)F)c(=O)n(C)c2=O)c1 [Example 9, Ethyl 2-methyl-2-(3-{5-[4-methyl-3,5-dioxo-2-(4,4,4-trifluoro-butyl)-2,3,4,5-tetrahydro-[1,2,4]triazin-6-yloxy]-pentyl}-phenoxy)-propionate] | – | – | – | – | –
~6.00 | 6.00 to 6.52 | CCCCCCCn1nc(OCCCCCc2cccc(OC(C)(C)C(=O)OCC)c2)c(=O)n(C)c1=O [Example 10, Ethyl 2-{3-[5-(2-heptyl-4-methyl-3,5-dioxo-2,3,4,5-tetrahydro-[1,2,4]triazin-6-yloxy)-pentyl]-phenoxy}-2-methyl-propionate] | – | – | – | – | –
5.00 to 5.52 | 5.00 to 5.52 | CCCCCCCn1nc(NCCCCc2cccc(SC(C)(C)C(=O)OCC)c2)c(=O)n(C)c1=O [Example 94, Ethyl 2-{3-[4-(2-heptyl-4-methyl-3,5-dioxo-2,3,4,5-tetrahydro-[1,2,4]triazin-6-ylamino)-butyl]-phenylsulfanyl}-2-methyl-propionate] | – | – | – | – | –
< 5.00 | 7.00 to 7.52 | CCOC(=O)C(C)(C)Oc1ccc(CCCCOc2nn(C)c(=O)n(CCCC(F)(F)F)c2=O)cc1 [Example 30, Ethyl 2-methyl-2-(4-{4-[2-methyl-3,5-dioxo-4-(4,4,4-trifluoro-butyl)-2,3,4,5-tetrahydro-[1,2,4]triazin-6-yloxy]-butyl}-phenoxy)-propionate] | – | – | – | – | –
< 5.00 | 5.52 to 6.00 | CCOC(=O)C(C)(C)Sc1cccc(CCCCNc2nn(CCCC(F)(F)F)c(=O)n(Cc3ccccc3)c2=O)c1 [Example 100, Ethyl 2-(3-{4-[4-Benzyl-3,5-dioxo-2-(4,4,4-trifluoro-butyl)-2,3,4,5-tetrahydro-[1,2,4]triazin-6-ylamino]-butyl}-phenylsulfanyl)-2-methyl-propionate] | – | – | – | – | –
5.52 to 6.00 | ~7.52 | CCCCn1c(=O)c(OCCCCCc2cccc(OC(C)(C)C(=O)O)c2)nn(C)c1=O [Example 12, 2-{3-[5-(4-Butyl-2-methyl-3,5-dioxo-2,3,4,5-tetrahydro-[1,2,4]triazin-6-yloxy)-pentyl]-phenoxy}-2-methyl-propionic Acid] | – | – | – | – | –
6.52 to 7.00 | ~6.52 | CCCCCCCn1c(=O)c(NCCCCc2cccc(OC(C)(C)C(=O)OCC)c2)nn(C/C=C/C(=O)OCC)c1=O [Example 87, Ethyl 4-(6-{4-[3-(1-ethoxycarbonyl-1-methyl-ethoxy)-phenyl]-butylamino}-4-heptyl-3,5-dioxo-4,5-dihydro-3H-[1,2,4]triazin-2-yl)-but-2-enonate] | – | – | – | – | –
~5.00 | ~5.52 | CCCCCCCn1nc(OCCCc2cccc(OC(C)(C)C(=O)OCC)c2)c(=O)n(C)c1=O [Example 5, Ethyl 2-{3-[3-(2-heptyl-4-methyl-3,5-dioxo-2,3,4,5-tetrahydro-[1,2,4]triazin-6-yloxy)-propyl]-phenoxy}-2-methyl-propionate] | – | – | – | – | –
~5.00 | 5.52 to 6.00 | CCOC(=O)C(C)(C)Oc1ccc(CCNc2nn(CCCC3CCCCC3)c(=O)n(CCCC(F)(F)F)c2=O)cc1 [Example 105, Ethyl 2-(4-{2-[2-(3-cyclohexyl-propyl)-3,5-dioxo-4-(4,4,4-trifluoro-butyl)-2,3,4,5-tetrahydro-[1,2,4]triazin-6-ylamino]-ethyl}-phenoxy)-2-methyl-propionate] | – | – | – | – | –
5.00 to 5.52 | ~6.52 | CCCCCCCn1c(=O)c(OCCCc2cccc(OC(C)(C)C(=O)OCC)c2)nn(CCCC(F)(F)F)c1=O [Example 8, Ethyl 2-(3-{3-[4-heptyl-3,5-dioxo-2-(4,4,4-trifluoro-butyl)-2,3,4,5-tetrahydro-[1,2,4]triazin-6-yloxy]-propyl}-phenoxy)-2-methyl-propionate] | – | – | – | – | –
~5.00 | ~6.52 | CCCCCCCn1nc(NCCCCc2cccc(OC(C)(C)C(=O)OCC)c2)c(=O)n(CCCCCCC)c1=O [Example 88, Ethyl 2-{3-[4-(2,4-diheptyl-3,5-dioxo-2,3,4,5-tetrahydro-[1,2,4]triazin-6-ylamino)-butyl]-phenoxy}-2-methyl-propionate] | – | – | – | – | –
5.00 to 5.52 | 6.00 to 6.52 | CCCCCCCn1nc(NCCCCc2cccc(OC(C)(C)C(=O)OCC)c2)c(=O)n(Cc2ccccc2)c1=O [Example 91, Ethyl 2-{3-[4-(4-benzyl-2-heptyl-3,5-dioxo-2,3,4,5-tetrahydro-[1,2,4]triazin-6-ylamino)-butyl]-phenoxy}-2-methyl-propionate] | – | – | – | – | –
